ChEMBL document CHEMBL4177573 (Bioorg Med Chem, 2017)
Calls of active or inactive are those of the source. The calls are words filed in the database; no cut-off is given here.

Assays:
Mus musculus [1] = experiment: Anorectic activity in C57BL/6J mouse assessed as inhibition of food intake at 0.3 mg/kg/day, sc dosed as […] and measured after 24 hrs; assay type: functional
Mus musculus [2] = experiment: Antiobesity activity in DIO C57BL/6J mouse assessed as reduction in body weight at 0.003 to 0.03 mg/kg, sc for 2 weeks dosed as continuous administration by infusion of osmotic pumps relative to untreated control; assay type: functional, organism-based
Mus musculus [3] = experiment: Antiobesity activity in DIO C57BL/6J mouse assessed as reduction in mesenteric fat weight at 0.003 to 0.03 mg/kg, sc for 2 weeks dosed as continuous administration by infusion of osmotic pumps relative to untreated control; assay type: functional, organism-based
[4] = Bioavailability in C57BL/6J mouse at 1 mg/kg, sc measured during 5 mins to 24 hrs by LC/MS/MS method; assay type: ADME, organism-based; details: in vivo
Mus musculus [5] = experiment: Anorectic activity in DIO C57BL/6J mouse assessed as reduction in cumulative food intake at 0.01 mg/kg, sc for 2 weeks dosed as continuous administration by infusion of osmotic pumps relative to untreated control; assay type: functional, organism-based
[6] = target: Neuropeptide Y receptor type 4 (Rattus norvegicus, UniProt Q63447); experiment: Agonist activity at rat neuropeptide Y4 receptor by [35S]GTPgammaS binding assay; assay type: functional
[7] = target: T1, Neuropeptide Y receptor type 2 (Homo sapiens, UniProt P49146); experiment: Agonist activity at human neuropeptide Y2 receptor expressed in CHO cell membranes assessed as stimulation of [35S]GTPgammaS binding incubated for 120 mins by liquid scintillation counting method; assay type: functional
T1 sequence (P49146 whole entry): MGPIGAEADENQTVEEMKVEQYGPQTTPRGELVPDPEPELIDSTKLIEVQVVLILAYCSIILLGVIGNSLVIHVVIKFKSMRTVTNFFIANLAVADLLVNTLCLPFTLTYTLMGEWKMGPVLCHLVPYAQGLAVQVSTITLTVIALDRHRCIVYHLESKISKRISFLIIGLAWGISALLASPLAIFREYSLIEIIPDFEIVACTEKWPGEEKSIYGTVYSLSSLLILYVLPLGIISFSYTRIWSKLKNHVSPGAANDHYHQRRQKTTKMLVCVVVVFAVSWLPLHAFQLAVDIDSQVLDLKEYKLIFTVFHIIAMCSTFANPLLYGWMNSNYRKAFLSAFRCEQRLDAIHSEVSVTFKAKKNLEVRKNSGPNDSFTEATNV

Mus musculus [8] = experiment: Antiobesity activity in DIO C57BL/6J mouse assessed as reduction in body weight at 0.01 mg/kg, sc for 2 weeks dosed as continuous administration by infusion of osmotic pumps; assay type: functional; details: 336 h
Mus musculus [9] = experiment: Antiobesity activity in DIO C57BL/6J mouse assessed as reduction in perirenal weight at 0.003 to 0.03 mg/kg, sc for 2 weeks dosed as continuous administration by infusion of osmotic pumps relative to untreated control; assay type: functional, organism-based

Chain of Neuropeptide Y receptor type 4 (Q63447 whole entry): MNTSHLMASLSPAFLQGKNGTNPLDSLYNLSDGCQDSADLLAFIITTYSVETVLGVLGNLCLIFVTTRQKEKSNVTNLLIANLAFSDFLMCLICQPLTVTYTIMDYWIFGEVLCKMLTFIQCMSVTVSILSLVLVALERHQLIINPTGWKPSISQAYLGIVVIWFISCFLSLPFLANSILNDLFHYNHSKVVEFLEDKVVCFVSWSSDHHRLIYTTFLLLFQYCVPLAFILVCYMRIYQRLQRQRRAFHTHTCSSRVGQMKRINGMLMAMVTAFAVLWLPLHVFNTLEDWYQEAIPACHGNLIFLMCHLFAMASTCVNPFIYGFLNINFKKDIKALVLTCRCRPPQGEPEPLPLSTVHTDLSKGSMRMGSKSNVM

bioavailability [4]: 60.2% | EC50 [6]: > 1000 nM | EC50 [7]: 0.15 nM
SMILES: CC[C@](C)(NC(=O)[C@H]1C[C@H](O)CN1C(=O)[C@H](CO)NC(=O)c1c[nH]cn1)C(=O)N[C@@H](Cc1ccncc1)C(=O)N[C@@H](CC1CCCCC1)C(=O)N[C@@H](CC(C)(C)C)C(=O)N[C@@H](CC(N)=O)C(=O)N[C@@H](CCCCN)C(=O)NC(C)(C)C(=O)N[C@H](C(=O)N[C@@H](CCCNC(=N)N)C(=O)N[C@@H](CCC(N)=O)C(=O)N[C@@H](CCCNC(=N)N)C(=O)N[C@@H](CC1CCCCC1)C(N)=O)[C@@H](C)O
inhibition in vivo at 0.3 mg/kg/day (Mus musculus [1]): 22% | Activity (Mus musculus [2]): Dose-dependent effect | Activity (Mus musculus [3]): Active | Activity (Mus musculus [5]): Active | inhibition in vivo at 0.01 mg/kg (Mus musculus [8]): 8.9% | Activity (Mus musculus [9]): Active
